This experiment has as its target T1, WIZ protein (HiBit-WIZ fusion protein) (Homo sapiens, UniProt O95785+Q96SW2).
T1 construct: expressed in transfected cells
Kind of experiment: Quantification of WIZ protein levels in HiBit tag fusion protein assay (WIZ HiBit assay in 293T cells). Further details: remaining activity / Dmax: dose or concentration left out as unconfirmed. The settings on record: for Dmax at 25 µM: 100 − Amax; for Dmax at 25 µM / remaining activity at 25 µM: 293T cells; for remaining activity at 25 µM: DMSO-normalized, curve-fitted percentage of WIZ-HiBit remaining at 25 uM; for DC50: WIZ HiBit assay in 293T cells, 10-point, 5-fold dose response, highest concentration 25 μM, about 18 hours, read-out: WIZ AC50. Type of experiment: cell-based. Put shortly: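 HiBit-tagged WIZ (N-terminal tag, HSVTK promoter) stably expressed single-copy in 293T cells; 10-point 1:5 compound series, top 25 μM, ~18 h at 37 °C. Lytic HiBit/LgBit luminescence read; Amax = curve-fitted % WIZ-HiBit remaining at 25 μM, DMSO normalized to 100%.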

[1] abbreviates: HEK-293T, read-out: % degradation of WIZ (100 − Amax).

T1 sequence (O95785 whole entry, the tested form may be a part): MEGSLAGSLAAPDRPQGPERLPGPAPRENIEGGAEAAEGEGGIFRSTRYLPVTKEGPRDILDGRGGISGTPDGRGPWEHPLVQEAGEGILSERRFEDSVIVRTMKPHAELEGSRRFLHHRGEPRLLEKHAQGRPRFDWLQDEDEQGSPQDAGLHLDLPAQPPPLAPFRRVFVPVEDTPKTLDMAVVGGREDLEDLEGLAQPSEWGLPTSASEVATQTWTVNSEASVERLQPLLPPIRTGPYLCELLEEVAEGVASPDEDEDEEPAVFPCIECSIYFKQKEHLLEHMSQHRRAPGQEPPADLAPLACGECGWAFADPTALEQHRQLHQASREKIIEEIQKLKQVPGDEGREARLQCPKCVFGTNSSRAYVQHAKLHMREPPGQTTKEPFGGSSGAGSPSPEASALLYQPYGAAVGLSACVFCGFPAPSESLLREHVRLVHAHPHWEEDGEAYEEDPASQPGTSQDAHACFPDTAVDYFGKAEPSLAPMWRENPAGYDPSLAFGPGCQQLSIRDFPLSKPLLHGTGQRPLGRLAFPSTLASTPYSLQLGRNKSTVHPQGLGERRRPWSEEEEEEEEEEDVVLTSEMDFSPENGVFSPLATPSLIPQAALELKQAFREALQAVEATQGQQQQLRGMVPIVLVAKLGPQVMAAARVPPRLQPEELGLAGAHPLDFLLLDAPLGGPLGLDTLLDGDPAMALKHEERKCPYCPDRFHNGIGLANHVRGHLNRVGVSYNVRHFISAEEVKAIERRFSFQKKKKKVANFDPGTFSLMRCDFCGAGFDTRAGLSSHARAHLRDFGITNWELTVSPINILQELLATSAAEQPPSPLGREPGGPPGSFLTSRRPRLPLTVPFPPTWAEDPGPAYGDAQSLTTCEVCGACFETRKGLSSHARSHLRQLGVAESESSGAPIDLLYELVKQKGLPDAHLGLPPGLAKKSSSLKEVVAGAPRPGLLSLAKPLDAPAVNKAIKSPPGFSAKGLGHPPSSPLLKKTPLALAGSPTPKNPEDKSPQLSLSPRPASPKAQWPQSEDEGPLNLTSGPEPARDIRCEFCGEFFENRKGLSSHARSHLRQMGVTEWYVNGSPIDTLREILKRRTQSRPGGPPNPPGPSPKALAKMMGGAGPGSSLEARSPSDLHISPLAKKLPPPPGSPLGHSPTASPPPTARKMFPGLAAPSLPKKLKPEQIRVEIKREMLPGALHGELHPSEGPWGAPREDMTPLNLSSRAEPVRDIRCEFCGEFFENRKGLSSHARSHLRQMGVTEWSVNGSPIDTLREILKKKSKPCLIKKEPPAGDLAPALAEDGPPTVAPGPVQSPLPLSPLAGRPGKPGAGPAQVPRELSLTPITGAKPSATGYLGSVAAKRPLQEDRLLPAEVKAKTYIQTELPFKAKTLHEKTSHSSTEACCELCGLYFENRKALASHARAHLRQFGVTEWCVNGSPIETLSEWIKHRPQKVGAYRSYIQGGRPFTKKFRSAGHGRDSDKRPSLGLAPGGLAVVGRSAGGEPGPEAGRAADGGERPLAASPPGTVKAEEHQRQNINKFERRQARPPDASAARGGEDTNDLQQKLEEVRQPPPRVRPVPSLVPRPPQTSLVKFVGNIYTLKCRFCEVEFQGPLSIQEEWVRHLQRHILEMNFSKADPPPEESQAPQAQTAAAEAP
T1 sequence (Q96SW2 whole entry, the tested form may be a part): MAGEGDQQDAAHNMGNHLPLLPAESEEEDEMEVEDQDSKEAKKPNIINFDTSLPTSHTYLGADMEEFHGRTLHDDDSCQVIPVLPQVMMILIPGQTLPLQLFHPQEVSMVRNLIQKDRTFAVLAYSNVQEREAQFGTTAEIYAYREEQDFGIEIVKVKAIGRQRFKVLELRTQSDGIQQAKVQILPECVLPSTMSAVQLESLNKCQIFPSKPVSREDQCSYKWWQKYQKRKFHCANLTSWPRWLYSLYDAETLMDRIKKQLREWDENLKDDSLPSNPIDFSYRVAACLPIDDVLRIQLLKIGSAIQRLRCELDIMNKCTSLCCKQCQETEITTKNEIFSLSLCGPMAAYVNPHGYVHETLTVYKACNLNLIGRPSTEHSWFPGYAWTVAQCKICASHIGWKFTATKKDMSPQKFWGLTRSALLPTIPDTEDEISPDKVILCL
T1 sequence (Q16531 whole entry partner, the tested form may be a part): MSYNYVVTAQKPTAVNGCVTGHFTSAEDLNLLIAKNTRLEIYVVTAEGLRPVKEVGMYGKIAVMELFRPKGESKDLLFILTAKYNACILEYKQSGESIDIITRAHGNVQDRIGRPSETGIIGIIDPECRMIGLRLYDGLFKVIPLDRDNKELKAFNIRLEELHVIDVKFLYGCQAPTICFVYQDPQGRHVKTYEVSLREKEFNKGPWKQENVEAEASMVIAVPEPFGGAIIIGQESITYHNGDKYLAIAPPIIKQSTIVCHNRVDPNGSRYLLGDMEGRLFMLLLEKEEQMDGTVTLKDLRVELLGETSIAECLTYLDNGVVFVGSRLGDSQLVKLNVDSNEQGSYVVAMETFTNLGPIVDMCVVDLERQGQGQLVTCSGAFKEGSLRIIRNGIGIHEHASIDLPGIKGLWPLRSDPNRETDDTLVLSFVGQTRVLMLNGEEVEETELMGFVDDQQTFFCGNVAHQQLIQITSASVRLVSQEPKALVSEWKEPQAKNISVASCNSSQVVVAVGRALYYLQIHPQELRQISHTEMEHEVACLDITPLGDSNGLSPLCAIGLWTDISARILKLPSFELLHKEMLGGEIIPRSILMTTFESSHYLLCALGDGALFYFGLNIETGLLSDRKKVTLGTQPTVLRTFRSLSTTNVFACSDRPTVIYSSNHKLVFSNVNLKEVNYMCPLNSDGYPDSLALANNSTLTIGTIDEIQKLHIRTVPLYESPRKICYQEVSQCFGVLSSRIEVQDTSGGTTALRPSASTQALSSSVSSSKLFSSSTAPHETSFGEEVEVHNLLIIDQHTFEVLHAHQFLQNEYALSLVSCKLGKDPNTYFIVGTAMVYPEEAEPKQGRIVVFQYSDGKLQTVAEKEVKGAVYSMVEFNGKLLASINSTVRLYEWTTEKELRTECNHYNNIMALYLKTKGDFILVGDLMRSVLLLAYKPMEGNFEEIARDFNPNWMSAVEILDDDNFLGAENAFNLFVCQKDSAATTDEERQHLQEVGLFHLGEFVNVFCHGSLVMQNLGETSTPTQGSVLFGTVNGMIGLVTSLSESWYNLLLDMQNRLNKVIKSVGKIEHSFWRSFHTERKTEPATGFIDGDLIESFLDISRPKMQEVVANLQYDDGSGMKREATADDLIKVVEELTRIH

`C[C@H]1CN(Cc2ccn3ncc(N4CCC(=O)NC4=O)c3c2)CCN1C(=O)C1CC1` [Example 340, (S)-1-(5-((4-(cyclopropanecarbonyl)-3-methylpiperazin-1-yl)methyl)pyrazolo[1,5-a]pyridin-3-yl)dihydropyrimidine-2,4(1H,3H)-dione]: the DC50 is 862 nM. In addition, under setting [1], the Dmax at 25 µM was 32%. The remaining activity at 25 µM (HEK-293T, read-out: WIZ Amax) came out at 68%.

Turning to `Cc1cccc(CN2CCN(Cc3ccn4ncc(N5CCC(=O)NC5=O)c4c3)CC2)c1` [Example 190, 1-(5-((4-(3-methylbenzyl)piperazin-1-yl)methyl)pyrazolo[1,5-a]pyridin-3-yl)dihydropyrimidine-2,4(1H,3H)-dione], the DC50 was 86 nM. Also, under setting [1], the Dmax at 25 µM is 54%. The remaining activity at 25 µM (HEK-293T, read-out: WIZ Amax) amounted to 46%.

`O=C1CCN(c2cnn3ccc(CN4CCN(CCC5CCOCC5)CC4)cc23)C(=O)N1` [Example 161]: the DC50 amounted to 115 nM. Besides, the Dmax at 25 µM under setting [1] stood at 80%. For the same compound, where the note is “HEK-293T, read-out: WIZ Amax”, the remaining activity at 25 µM turned out to be 20%.

In the case of `CC(C)CN1CC[C@@H](Cc2ccn3ncc(-n4ccc(=O)[nH]c4=O)c3c2)C[C@@H]1C` [Example 346, 1-(5-(((2S,4R)-1-isobutyl-2-methylpiperidin-4-yl)methyl)pyrazolo[1,5-a]pyridin-3-yl)pyrimidine-2,4(1H,3H)-dione], the DC50 came to 108 nM. The Dmax at 25 µM under setting [1] came to 87%. Moreover, under “HEK-293T, read-out: WIZ Amax”, the remaining activity at 25 µM was 13%.

Turning to `O=C1CCN(c2cnn3ccc(CC4CCN(CCC5CCC5)CC4)cc23)C(=O)N1` [Example 13, 1-(5-((1-(2-cyclobutylethyl)piperidin-4yl)methyl)pyrazolo[1,5-a]pyridin-3-yl)dihydropyrimidine-2,4(1H,3H)-dione], the DC50 stood at 19 nM. In addition, the Dmax at 25 µM under setting [1] is 84%. Also, under “HEK-293T, read-out: WIZ Amax”, the remaining activity at 25 µM was found to be 16%.

Take `CCN1CCC(Cc2ccn3ncc(N4CCC(=O)NC4=O)c3c2)CC1` [Example 24, 1-(5-((1-ethylpiperidin-4-yl)methyl)pyrazolo[1,5-a]pyridin-3-yl)dihydropyrimidine-2,4(1H,3H)-dione]: the DC50 amounted to 1080 nM. Besides, the Dmax at 25 µM under setting [1] was determined as 77%. Besides, where the note is “HEK-293T, read-out: WIZ Amax”, the remaining activity at 25 µM is 23%.

For the compound `Cc1cncc(CN2CCC(Cc3ccn4ncc(N5CCC(=O)NC5=O)c4c3)CC2)c1` [Example 36, 1-(5-((1-((5-methylpyridin-3-yl)methyl)piperidin-4-yl)methyl)pyrazolo[1,5-a]pyridin-3-yl)dihydropyrimidine-2,4(1H,3H)-dione], the DC50 worked out at 68 nM. Under setting [1], the Dmax at 25 µM was found to be 72%. Besides, the remaining activity at 25 µM (HEK-293T, read-out: WIZ Amax) stood at 28%.

For the compound `CCC(C)S(=O)(=O)N1CCC(Cc2ccn3ncc(N4CCC(=O)NC4=O)c3c2)CC1` (stereo not drawn) [Example 86], the DC50 was 27 nM. Moreover, under setting [1], the Dmax at 25 µM was determined as 80%. Also, the remaining activity at 25 µM (HEK-293T, read-out: WIZ Amax) came out at 20%.

Turning to `O=C1CCN(c2cnn3ccc(CN4CCN(CC(F)(F)F)CC4)cc23)C(=O)N1` [Example 171], the DC50 was found to be 981 nM. The Dmax at 25 µM under setting [1] worked out at 52%. The remaining activity at 25 µM (HEK-293T, read-out: WIZ Amax) came out at 48%.

For `O=C1CCN(c2cnn3ccc(CC4CCN(Cc5ccc(F)cc5F)CC4)cc23)C(=O)N1` [Example 50, 1-(5-((1-(2,4-difluorobenzyl)piperidin-4-yl)methyl)pyrazolo[1,5-a]pyridin-3-yl)dihydropyrimidine-2,4(1H,3H)-dione], the DC50 came out at 113 nM. Besides, the Dmax at 25 µM under setting [1] was 66%. Also, the remaining activity at 25 µM (HEK-293T, read-out: WIZ Amax) came to 34%.

As to `O=C1CCN(c2cnn3ccc(CC4CCN(C(=O)OC5CCCCC5)CC4)cc23)C(=O)N1` [Example 96], the DC50 is more than 25000 nM. Under setting [1], the Dmax at 25 µM was 42%. Moreover, under “HEK-293T, read-out: WIZ Amax”, the remaining activity at 25 µM is 58%.

For the compound `CC(C)CN1CCN(Cc2ccn3ncc(N4CCC(=O)NC4=O)c3c2)C[C@H]1C` [Example 216], the DC50 turned out to be 89 nM. Under setting [1], the Dmax at 25 µM was determined as 65%. The remaining activity at 25 µM (HEK-293T, read-out: WIZ Amax) worked out at 35%.

For the compound `CC(C)C(=O)N1CCC(Cc2ccn3ncc(N4CCC(=O)NC4=O)c3c2)CC1` [Example 98, 1-(5-((1-isobutyrylpiperidin-4-yl)methyl)pyrazolo[1,5-a]pyridin-3-yl)dihydropyrimidine-2,4(1H,3H)-dione], the DC50 was 587 nM. Moreover, under setting [1], the Dmax is 59%. For the same compound, the remaining activity (HEK-293T, read-out: WIZ Amax) was 41%.

`C[C@H]1C[C@H](Cc2ccn3ncc(-n4cc(F)c(=O)[nH]c4=O)c3c2)CCN1CC1CCC(F)(F)CC1` [Example 350, 1-(5-(((2S,4R)-1-((4,4-difluorocyclohexyl)methyl)-2-methylpiperidin-4-yl)methyl)pyrazolo[1,5-a]pyridin-3-yl)-5-fluoropyrimidine-2,4(1H,3H)-dione]: the DC50 was found to be 28 nM. Besides, the Dmax at 25 µM under setting [1] was determined as 90%. Also, the remaining activity at 25 µM (HEK-293T, read-out: WIZ Amax) worked out at 10%.

Take `CC[C@H]1CN(Cc2ccn3ncc(N4CCC(=O)NC4=O)c3c2)CCN1CC(C)C` [Example 228, (S)-1-(5-((3-ethyl-4-isobutylpiperazin-1-yl)methyl)pyrazolo[1,5-a]pyridin-3-yl)dihydropyrimidine-2,4(1H,3H)-dione]: the DC50 was 704 nM. Further, the Dmax at 25 µM under setting [1] was determined as 55%. Moreover, the remaining activity at 25 µM (HEK-293T, read-out: WIZ Amax) was found to be 45%.

With `O=C1CCN(c2cnn3ccc(CC4CCN(CC5COC5)CC4)cc23)C(=O)N1` [Example 119, 1-(5-((1-(oxetan-3-ylmethyl)piperidin-4-yl)methyl)pyrazolo[1,5-a]pyridin-3-yl)dihydropyrimidine-2,4(1H,3H)-dione], the DC50 is 109 nM. Moreover, under setting [1], the Dmax at 25 µM amounted to 82%. Further, for the setting “HEK-293T, read-out: WIZ Amax”, the remaining activity at 25 µM stood at 18%.

Regarding `CC(C)CC(C)(C)N1CCC(Cc2ccn3ncc(N4CCC(=O)NC4=O)c3c2)CC1` [Example 139, 1-(5-((1-(2,4-dimethylpentan-2-yl)piperidin-4-yl)methyl)pyrazolo[1,5-a]pyridin-3-yl)dihydropyrimidine-2,4(1H,3H)-dione], the DC50 was determined as 3 nM. The Dmax at 25 µM under setting [1] worked out at 83%. Besides, the remaining activity at 25 µM (HEK-293T, read-out: WIZ Amax) was found to be 17%.

`CC(C)S(=O)(=O)N1CCC(Cc2ccn3ncc(N4CCC(=O)NC4=O)c3c2)CC1` [Example 85]: the DC50 came to 38 nM. Further, the Dmax at 25 µM under setting [1] turned out to be 83%. In addition, the remaining activity at 25 µM (HEK-293T, read-out: WIZ Amax) came to 17%.

On to `O=C1CCN(c2cnn3ccc(CC4CCN(S(=O)(=O)NC5CCCC5)CC4)cc23)C(=O)N1` [Example 298, N-cyclopentyl-4-((3-(2,4-dioxotetrahydropyrimidin-1(2H)-yl)pyrazolo[1,5-a]pyridin-5-yl)methyl)piperidine-1-sulfonamide], for which the DC50 was found to be 242 nM. Further, the Dmax at 25 µM under setting [1] turned out to be 51%. Besides, the remaining activity at 25 µM (HEK-293T, read-out: WIZ Amax) came out at 49%.

Turning to `CC(C)S(=O)(=O)N1C[C@@H]2C[C@H]1CN2Cc1ccn2ncc(N3CCC(=O)NC3=O)c2c1` [Example 238, 1-(5-(((1S,4S)-5-(isopropylsulfonyl)-2,5-diazabicyclo[2.2.1]heptan-2-yl)methyl)pyrazolo[1,5-a]pyridin-3-yl)dihydropyrimidine-2,4(1H,3H)-dione], the DC50 turned out to be 754 nM. In addition, under setting [1], the Dmax at 25 µM was 19%. Further, for the setting “HEK-293T, read-out: WIZ Amax”, the remaining activity at 25 µM is 81%.

`C[C@H]1C[C@H](Cc2ccn3ncc(N4CCC(=O)NC4=O)c3c2)CCN1CC1CCO1` (stereo partly drawn) [Example 277, 1-(5-(((2S,4R)-2-methyl-1-(oxetan-2-ylmethyl)piperidin-4-yl)methyl)pyrazolo[1,5-a]pyridin-3-yl)dihydropyrimidine-2,4(1H,3H)-dione]: the DC50 is 203 nM. For the same compound, the Dmax at 25 µM under setting [1] is 76%. Under “HEK-293T, read-out: WIZ Amax”, the remaining activity at 25 µM was determined as 24%.

Consider `C[C@H]1CN(CC2CCCCC2)CCN1Cc1ccn2ncc(N3CCC(=O)NC3=O)c2c1` [Example 221], for which the DC50 was 318 nM. The Dmax at 25 µM under setting [1] is 54%. For the same compound, for the setting “HEK-293T, read-out: WIZ Amax”, the remaining activity at 25 µM was 46%.

For the compound `CO[C@H]1CC[C@@H](CN2CCC(Cc3ccn4ncc(N5CCC(=O)NC5=O)c4c3)CC2)CC1` [Example 65, 1-(5-((1-(((1s,4s)-4-methoxycyclohexyl)methyl)piperidin-4-yl)methyl)pyrazolo[1,5-a]pyridin-3-yl)dihydropyrimidine-2,4(1H,3H)-dione], the DC50 turned out to be 32 nM. Under setting [1], the Dmax at 25 µM came out at 94%. Further, the remaining activity at 25 µM (HEK-293T, read-out: WIZ Amax) came out at 6%.

Consider `C[C@H]1CN(Cc2ccn3ncc(N4CCC(=O)NC4=O)c3c2)CCN1C1CCC(F)(F)CC1` [Example 334], for which the DC50 was 32 nM. Besides, the Dmax at 25 µM under setting [1] worked out at 85%. For the same compound, the remaining activity at 25 µM (HEK-293T, read-out: WIZ Amax) was 15%.

For the compound `C[C@@H]1CN(Cc2ccn3ncc(N4CCC(=O)NC4=O)c3c2)C[C@H](C)N1CC1CCOCC1` [Example 256, 1-(5-(((3S,5R)-3,5-dimethyl-4-((tetrahydro-2H-pyran-4-yl)methyl)piperazin-1-yl)methyl)pyrazolo[1,5-a]pyridin-3-yl)dihydropyrimidine-2,4(1H,3H)-dione], the DC50 was 186 nM. The Dmax at 25 µM under setting [1] was determined as 78%. The remaining activity at 25 µM (HEK-293T, read-out: WIZ Amax) was found to be 22%.

Take `C[C@H]1C[C@H](Cc2ccn3ncc(N4CCC(=O)NC4=O)c3c2)CCN1C(=O)C1CCC1` [Example 289]: the DC50 was determined as 33 nM. Besides, the Dmax at 25 µM under setting [1] was found to be 79%. Also, the remaining activity at 25 µM (HEK-293T, read-out: WIZ Amax) came out at 21%.

On to `CCS(=O)(=O)N1CC[C@@H](Cc2ccn3ncc(-n4ccc(=O)[nH]c4=O)c3c2)C[C@@H]1C` [Example 356, 1-(5-(((2S,4R)-1-(ethylsulfonyl)-2-methylpiperidin-4-yl)methyl)pyrazolo[1,5-a]pyridin-3-yl)pyrimidine-2,4(1H,3H)-dione], for which the DC50 was 162 nM. For the same compound, under setting [1], the Dmax at 25 µM amounted to 83%. Also, the remaining activity at 25 µM (HEK-293T, read-out: WIZ Amax) is 17%.

The values above are taken from patent US11787785B2 (NOVARTIS AG, priority 2021, dated 2023).
